Experimental data taken from ChEMBL document CHEMBL3882730, “Organic Compounds as Smo Inhibitors” (2010).
In brackets after ≈: the same amount, converted by molar mass.

Assay: Equilibrium solubility of the compound at pH 6.8
Type: physicochemical
Details: buffer

| SMILES | solubility thermodynamic [µM] |
| --- | --- |
| CC(C)(O)c1cnc(N2CCN(c3nnc(Cc4ccccc4)c4c3CCC4)CC2)cn1 | < 5 |
| C[C@@H]1CN(c2nnc(Cc3ccccc3)c3c2CCC3)CCN1c1cnc(C(C)(C)O)cn1 | 5 to 20 (≈ 2.22 to 8.89 µg/mL) |
